We go through two molecules from patent US10881679B2, “Application of a phillyrin/phillygeninin composition in preparing a medicine or health care product for alleviating or/and treating viral diseases, and medicine or health care product for treating viral diseases” (priority 2014, dated 2021).

Where two headings read alike, the source gives them in different places. Marks after values point to notes of the source that are not given here.

For one data set, the system named is Vero cells. The data set can be described thus: Cytotoxicity test (MTT) on Vero cells. The settings on record: 72 h. The class given is cell-based, African green monkey. On the procedure:
Cytotoxicity test: the drugs were diluted according to the concentrations shown in table 1-1 for determination of cytotoxicity. […] In addition, 6 wells were set up as normal control group (without drugs) while another 6 pores as blank control group (medium only). Cells were grown in a 37° C. incubator under 5% CO2. […] After 72 h, 20 μL MTT solution (5 mg·mL^−1) was added into each well to continue incubation for 4 h. The culture medium in each well was sucked and discarded, 100 μL DMSO was added to each well. Then the culture was shaken for 5 min, measured OD value at 492 nm to calculate the cell survival ratio. The cell survival ratio was analyzed using a Probit regression model in SPSS 18.0 statistical software, and the maximal nontoxic concentration (TC0) and median toxic concentration (TC50) of drugs against Vero cells were calculated.

The subject of data set [1] is influenza virus. As to the kind of experiment: Impact on virus-induced cytopathic effect in Vero cells (MTT): influenza virus. Particulars: influenza virus 100TCID50, Vero, 72 h; drug g/L (Table 1-2): phillyrin 0.01, Phillygeninin 0.02, compositions A, B 0.01, Ribavirin 0.70, oseltamivir phosphate 0.30. Type of data set: cell-based. (Protection from cytopathic effect is a common read-out in antiviral testing.)

Data set [2] concerns parainfluenza virus. As to the kind of experiment: Impact on virus-induced cytopathic effect in Vero cells (MTT): parainfluenza virus. Type of data set: cell-based. The settings on record: parainfluenza virus 100TCID50, Vero, 72 h; drug g/L as Table 1-2.
Data set [3] has as its system Coxsackievirus A16 (CoxA16). The data set can be described thus: Impact on virus-induced cytopathic effect in Vero cells (MTT): CoxA16. Particulars: CoxA16 100TCID50, Vero, 72 h; drug g/L as Table 1-2. The class given is cell-based.
Data set [4] relates to respiratory syncytial virus (RSV). As to the kind of experiment: Impact on virus-induced cytopathic effect in Vero cells (MTT): RSV. Type of data set: cell-based. Particulars: RSV 100TCID50, Vero, 72 h; drug g/L as Table 1-2.
Data set [5] has as its system Herpes zoster simplex viruses type I (HSV-I). The data set can be described thus: Impact on virus-induced cytopathic effect in Vero cells (MTT): HSV-I. The class given is cell-based. Particulars: HSV-I 100TCID50, Vero, 72 h; drug g/L as Table 1-2.
The next data set has as its system adenovirus (ADV). The data set can be described thus: Impact on virus-induced cytopathic effect in Vero cells (MTT): ADV. The class given is cell-based. Particulars: ADV 100TCID50, Vero, 72 h; drug g/L as Table 1-2.
A further data set has as its system enterovirus EV71. As to the kind of experiment: Impact on virus-induced cytopathic effect in Vero cells (MTT): EV71. Particulars: EV71 100TCID50, Vero, 72 h; drug g/L as Table 1-2. Type of data set: cell-based.
In data set [6] the test system is Coxsackie virus B3 (CVB3). The data set can be described thus: Impact on virus-induced cytopathic effect in Vero cells (MTT): CVB3. The class given is cell-based. Particulars: CVB3 100TCID50, Vero, 72 h; drug g/L as Table 1-2.
Data set [7] relates to influenza virus. Type of data set: in vivo, Kunming mice. Particulars: 19.5 mg/kg/d i.g. 5 days.
Data set [8] relates to parainfluenza virus. Type of data set: in vivo, Kunming mice. The settings on record: 19.5 mg/kg/d i.g. 5 days.
The test system of data set [9] is influenza virus. Type of data set: in vivo, Kunming mice.
In data set [10] the test system is parainfluenza virus. The class given is in vivo, Kunming mice.

Consider `CCOC(=O)C1=C[C@@H](OC(CC)CC)[C@H](NC(C)=O)[C@@H](N)C1` [oseltamivir phosphate], for which the “half toxic concentration (TC50)” value in the data set with Vero cells amounted to 832 µg/mL. Moreover, the “maximal non-toxic concentration (TC0)” value with Vero cells turned out to be 0.28 g/L. Besides, the “antiviral effective rate (ER %)” value with influenza virus [1] was 81.76** %; in the data set with parainfluenza virus [2] it was 94.52** %; in [3], 2.95%; in data set [4], 37.60%; in data set [5] it was 66.56** %; with adenovirus (ADV) it was 10.31%. Also, the results for the “antiviral effective rate (ER %)” value (with enterovirus EV71; in [6]) were 51.86% and 1.64%, respectively. The Lung index with influenza virus [7] was determined as 1.178 ± 0.066; in the data set with parainfluenza virus [8], 1.243 ± 0.054. The “Lung index inhibition rate” value in the data set with influenza virus [7] was 19.84; in the data set on parainfluenza virus [8] it was 21.85. Besides, the “Hemagglutination titer (InX)” value in the data set on influenza virus [9] (19.5 mg/kg/d i.g. 5 days) is reported as 20.50 ± 1.123; with parainfluenza virus [10] (19.5 mg/kg/d i.g. 5 days), 22.05. Besides, the “Inhibition rate (%) of hemagglutination titer” value came out at 36.73% in the data set on influenza virus [9] (19.5 mg/kg/d i.g. 5 days) and 33.40% in the data set on parainfluenza virus [10] (19.5 mg/kg/d i.g. 5 days).

In the case of `NC(=O)c1ncn([C@@H]2O[C@H](CO)[C@@H](O)[C@H]2O)n1` [Ribavirin], the “antiviral effective rate (ER %)” value in the data set on influenza virus [1] is recorded as 57.49** %; in the data set with parainfluenza virus [2], 91.56** %; in [3], 0.70%; in data set [4] it was 50.08* %; in data set [5] it was 62.92** %; with adenovirus (ADV) it was 0.43%. Besides, the “antiviral effective rate (ER %)” value with enterovirus EV71 stood at 4.25%; in data set [6] it was 13.44%. The “Hemagglutination titer (InX)” value is given as 21.91 ± 1.050 in the data set on influenza virus [9] (58.5 mg/kg/d i.g. 5 days) and 23.22 in the data set on parainfluenza virus [10] (58.5 mg/kg/d i.g. 5 days). For the same molecule, the “Inhibition rate (%) of hemagglutination titer” value amounted to 32.39% in the data set on influenza virus [9] (58.5 mg/kg/d i.g. 5 days) and 29.86% in the data set on parainfluenza virus [10] (58.5 mg/kg/d i.g. 5 days).
